Test results from US6214844A, “Substituted imidazole compounds” (SmithKline Beecham Corporation, priority 1999, dated 2001).
Each block holds one compound with its values, some of them ahead of it.

Key:
[1] = molecular target: T1, cytokine specific binding protein (CSBP) (Homo sapiens, UniProt Q16539); experiment: Cytokine Specific Binding Protein Assay (radiocompetitive binding, cytosolic fraction of THP.1 cells); conditions: THP.1 cytosolic fraction, radiolabeled compound
T1 construct: soluble cystosolic fraction from THP.1 cells; endogenous in cells; host or cells: THP.1 cells, soluble cytosolic fraction
T1 sequence (Q16539 whole entry): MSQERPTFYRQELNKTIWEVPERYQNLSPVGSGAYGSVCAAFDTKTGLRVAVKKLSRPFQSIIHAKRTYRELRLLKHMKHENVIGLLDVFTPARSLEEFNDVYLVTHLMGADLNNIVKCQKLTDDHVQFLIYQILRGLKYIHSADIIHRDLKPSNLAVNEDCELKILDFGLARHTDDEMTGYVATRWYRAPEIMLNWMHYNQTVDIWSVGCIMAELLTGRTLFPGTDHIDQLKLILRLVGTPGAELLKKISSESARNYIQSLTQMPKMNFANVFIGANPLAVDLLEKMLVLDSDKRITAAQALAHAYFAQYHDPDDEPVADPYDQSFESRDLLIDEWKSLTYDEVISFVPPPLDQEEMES

human PGHS-2 = experiment: Prostoglandin endoperoxide synthase-2 (PGHS-2) assay: PGHS-2 protein expression in LPS stimulated human monocytes; format: cell-based
Procedure: Prostoglandin endoperoxide synthase-2 (PGHS-2) assay:
The following assay describes a method for determining the inhibitory effects of compounds of Formula (I) on human PGHS-2 protein expression in LPS stimulated human monocytes.
Method: Human peripheal blood monocytes were isolated from buffy coats by centrifugation through Ficoll and Percoll gradients. Cells were seeded at 2×10^6 /well in 24 well plates and allowed to adhere for 1 hour in RPMI supplemented with 1% human AB serum, 20 mM L-glutamine, Penicillin-Streptomycin and 10 mM HEPES. Compounds were added at various concentrations and incubated at 37° C. for 10 minutes. LPS was added at 50 ng/well (to induce enzyme expression) and incubated overnight at 37° C. The supernatant was removed and cells washed once in cold PBS. The cells were lysed in 100 μl of cold lysis buffer(50 mM Tris/HCl pH 7.5, 150 mM NaCl, 1% NP40, 0.5% sodium deoxycholate, 0.1% SDS, 300 ug/ml DNAse, 0.1% TRITON X-100, 1 mM PMSF, 1 mM leupeptin, 1 mM pepstatin). The lysate was centrifuged (10,000×g for 10 min. at 4° C.) to remove debris and the soluble fraction was subjected to SDS PAGE. analysis (12% gel). Protein separated on the gel were transferred onto nitrocellulose membrane by electrophoretic means for 2 hours at 60 volts. The membrane was pretreated for one hour in PBS/0.1% Tween 20 with 5% non-fat dry milk. After washing 3 times in PBS/Tween buffer, the membrane was incubated with a 1:2000 dilution of a monospecific antiserum to PGHS-2 or a 1:1000 dilution of an antiserum to PGHs-1 in PBS/Tween with 1% BSA for one hour with continuous shaking. The membrane was washed 3× in PBS/Tween and then incubated with a 1:3000 dilution of horseradish peroxidase conjugated donkey antiserum to rabbit Ig (Amershamn) in PBS/Tween with 1% BSA for one hour with continuous shaking. The membrane was then washed 3× in PBS/Tween and the ECL immunodetection system (Amersham) was used to detect the level of expression of prostaglandin endoperoxide synthases-2.

IL-1 = experiment: Interleukin-1 (IL-1) production by LPS-stimulated human peripheral blood monocytes; format: cell-based; conditions: LPS 50 ng/ml
Procedure: Human peripheral blood monocytes are isolated and purified from either fresh blood preparations from volunteer donors, or from blood bank buffy coats, according to the procedure of Colotta et al, J Immunol, 132, 936 (1984). These monocytes (1×10^6) are plated in 24-well plates at a concentration of 1-2 million/ml per well. The cells are allowed to adhere for 2 hours, after which time non-adherent cells are removed by gentle washing. Test compounds are then added to the cells for 1 h before the addition of lipopolysaccharide (50 ng/ml), and the cultures are incubated at 37° C. for an additional 24 h. At the end of this period, culture supernatants are removed and clarified of cells and all debris. Culture supernatants are then immediately assayed for IL-1 biological activity, either by the method of Simon et al., J. Immunol. Methods, 84, 85, (1985) (based on ability of IL-1 to stimulate a Interleukin 2 producing cell line (EL-4) to secrete IL-2, in concert with A23187 ionophore) or the method of Lee et al., J. Immuno Therapy, 6 (1), 1-12 (1990) (ELISA assay).

CSBP2 = molecular target: T2, CSBP2 (Homo sapiens, UniProt Q16539); experiment: CSBP kinase assay (32P transfer to EGFR-derived peptide T669); format: biochemical
T2 construct: made in house
T2 sequence (Q16539 whole entry): as above
Procedure: Compounds (5 ul from [6X] stock^(2)) are pre-incubated with the enzyme and peptide for 20 min on ice prior to starting the reactions with 32P/MgATP. Reactions are incubated at 30° C. for 10 min and stopped by adding 10 ul of 0.3 M phosphoric acid. 32P-labeled peptide is separated on phosphocellulose (Wattman, p81) filters by spotting 30 ul reaction mixture. Filters are washed 3 times with […] phosphoric acid followed by 2 washes with H2 O, and counted for 32P.
^(2) Compounds are usually dissolved in DMSO and are diluted in 25 mM Hepes buffer to get final concentration of DMSO of 0.17%.

[2] = active, rank order potency similar to that for inhibiting cytokine production

IC50 [1]: < 50 µM
SMILES: CSc1nccc(-c2c(-c3ccc(F)cc3)ncn2C2CCNCC2)n1 [Example 6, 5-(2-Methylthio-4-pyrimidinyl)4-(4-fluorophenyl)-1-(4-piperidinyl)imidazole]

SMILES: CC(Cc1ccc(O)c(O)c1)C(C)Cc1ccc(O)c(O)c1 (stereo not drawn) [NDGA]
inhibition of LPS induced PGHS-2 protein expression (human PGHS-2; inactive, up to 10 μM): inactive

SMILES: COc1ccc(C2CNC(=O)C2)cc1OC1CCCC1 (stereo not drawn) [rolipramr]
inhibition of LPS induced PGHS-2 protein expression (human PGHS-2; inactive, up to 10 μM): inactive

SMILES: COc1nccc(-c2c(-c3ccc(F)cc3)ncn2C2CCNCC2)n1 [Example 1, 5-(2-Methoxy-4-pyrimidinyl)-4-(4-fluorophenyl)-1-(4-piperidinyl)imidazole]
inhibition of IL-1 production (IL-1): positive inhibition

SMILES: C[C@@H]1C[C@H]2[C@@H]3CCC4=CC(=O)C=C[C@]4(C)[C@@]3(F)[C@@H](O)C[C@]2(C)[C@@]1(O)C(=O)CO [Dexamethasone]
inhibition of LPS induced PGHS-2 protein expression (human PGHS-2; [2]): active

SMILES: Fc1ccc(-c2nc3n(c2-c2ccncc2)CCS3)cc1 [6-(4-Fluorophenyl)-2,3-dihydro-5-(4-pyridinyl)imidazo[2,1-b]thiazole]
inhibition of LPS induced PGHS-2 protein expression (human PGHS-2; [2]): active

SMILES: C[S+]([O-])c1ccc(-c2nc(-c3ccc(F)cc3)c(-c3ccncc3)[nH]2)cc1 (stereo not drawn) [4-(4-Fluorophenyl)-2-(4-methylsulfinylphenyl)-5-(4-pyridyl)imidazole]
inhibition of LPS induced PGHS-2 protein expression (human PGHS-2; [2]): active

IC50 (CSBP2): > 50 µM
SMILES: CCOC(=O)N1CCC(n2cnc(-c3ccc(SC)cc3)c2-c2ccnc(SC)n2)CC1 [Example 9, 1-(1-Ethylcarboxylpiperidin-4-yl)-3-(4-thiomethylphenyl)-5-[2-(thiomethyl)pyrimidin-4-yl]-imidazole]

IC50 (CSBP2): > 50 µM
SMILES: CC(C)Oc1cc(-c2c(-c3ccc(F)cc3)ncn2C2CCNCC2)ccn1 [Example 5, 5-(2-iso-Propoxy4-pyridinyl)-4-(4-fluorophenyl)-1-(4-piperidinyl)imidazole]

IC50 (CSBP2): > 50 µM
SMILES: CCOC(=O)N1CCC(n2cnc(-c3ccc([S+](C)[O-])cc3)c2-c2ccnc([S+](C)[O-])n2)CC1 (stereo not drawn) [Example 10]

SMILES: C[S+]([O-])c1ccc(-c2nc3n(c2-c2ccncc2)CCC3)cc1 (stereo not drawn) [2-(4-Methylsulfinylphenyl)-3-(4-pyridyl)-6,7-dihydro-(5H)-pyrrolo[1,2-a]imidazole]
inhibition of LPS induced PGHS-2 protein expression (human PGHS-2; inactive, up to 10 μM): inactive

SMILES: O=C1CCN(c2ccccc2)N1 [phenidone]
inhibition of LPS induced PGHS-2 protein expression (human PGHS-2; inactive, up to 10 μM): inactive
